Results reported in patent publication US8846699B2, “Quinazoline derivatives as a multiplex inhibitor and method for the preparation thereof” (Hanmi Pharm. Co., Ltd., priority 2005, dated 2014).

Legend:
VEGFR2 (KDR) = VEGFR2 (KDR) (Homo sapiens (Human), UniProt P35968); test: VEGFR2 (KDR) enzyme assay, fluorescence polarization; assay type: biochemical; details: 5 μM ATP, poly(Glu, Tyr) substrate
Procedure, shortened: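 Autophosphorylation read by fluorescence polarization: VEGFR2 (Proquinase) at 200 ng/10 μl with 5 μM ATP and 10 ng/ml poly(Glu,Tyr) 4:1, in 20 mM HEPES pH 7.4, 5 mM MgCl2, 2 mM MnCl2, 50 μM Na3VO4. Reaction 1 h at room temperature, EDTA stop, then anti-phosphotyrosine antibody/tracer for 30 min in the dark.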

[1] = system: breast cancer cell line, SK-Br3; test: Inhibitory effect on growth of cancer cell line SK-Br3, SRB; assay type: cell-based; details: overexpressed EGFR2 (HER-2)
Procedure, shortened: (§1)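 Cells were cultured in DMEM with 10% FBS. Compounds were applied at 10 μM with 10-fold serial dilution to 10^−4, DMSO <1%, for 72 h at 37 °C. Cells were then TCA-fixed and stained with 0.4% SRB, and absorbance was read at 570 nm after solubilisation in 10 mM Tris base.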

[2] = system: Human Umbilical Vein Endothelial Cell (HUVEC); test: Inhibitory effect on growth of human umbilical vein endothelial cell (HUVEC), MTS; assay type: cell-based; details: 10 ng/ml VEGF, absorbance 490 nm
EGFR1 (HER-1) = EGFR1 (HER-1) (Homo sapiens (Human), UniProt P00533); test: EGFR1 (HER-1) enzyme assay, fluorescence polarization; assay type: biochemical; details: 100 μM ATP, poly(Glu, Tyr) substrate
Sequence of EGFR1 (HER-1) (P00533 25-1210): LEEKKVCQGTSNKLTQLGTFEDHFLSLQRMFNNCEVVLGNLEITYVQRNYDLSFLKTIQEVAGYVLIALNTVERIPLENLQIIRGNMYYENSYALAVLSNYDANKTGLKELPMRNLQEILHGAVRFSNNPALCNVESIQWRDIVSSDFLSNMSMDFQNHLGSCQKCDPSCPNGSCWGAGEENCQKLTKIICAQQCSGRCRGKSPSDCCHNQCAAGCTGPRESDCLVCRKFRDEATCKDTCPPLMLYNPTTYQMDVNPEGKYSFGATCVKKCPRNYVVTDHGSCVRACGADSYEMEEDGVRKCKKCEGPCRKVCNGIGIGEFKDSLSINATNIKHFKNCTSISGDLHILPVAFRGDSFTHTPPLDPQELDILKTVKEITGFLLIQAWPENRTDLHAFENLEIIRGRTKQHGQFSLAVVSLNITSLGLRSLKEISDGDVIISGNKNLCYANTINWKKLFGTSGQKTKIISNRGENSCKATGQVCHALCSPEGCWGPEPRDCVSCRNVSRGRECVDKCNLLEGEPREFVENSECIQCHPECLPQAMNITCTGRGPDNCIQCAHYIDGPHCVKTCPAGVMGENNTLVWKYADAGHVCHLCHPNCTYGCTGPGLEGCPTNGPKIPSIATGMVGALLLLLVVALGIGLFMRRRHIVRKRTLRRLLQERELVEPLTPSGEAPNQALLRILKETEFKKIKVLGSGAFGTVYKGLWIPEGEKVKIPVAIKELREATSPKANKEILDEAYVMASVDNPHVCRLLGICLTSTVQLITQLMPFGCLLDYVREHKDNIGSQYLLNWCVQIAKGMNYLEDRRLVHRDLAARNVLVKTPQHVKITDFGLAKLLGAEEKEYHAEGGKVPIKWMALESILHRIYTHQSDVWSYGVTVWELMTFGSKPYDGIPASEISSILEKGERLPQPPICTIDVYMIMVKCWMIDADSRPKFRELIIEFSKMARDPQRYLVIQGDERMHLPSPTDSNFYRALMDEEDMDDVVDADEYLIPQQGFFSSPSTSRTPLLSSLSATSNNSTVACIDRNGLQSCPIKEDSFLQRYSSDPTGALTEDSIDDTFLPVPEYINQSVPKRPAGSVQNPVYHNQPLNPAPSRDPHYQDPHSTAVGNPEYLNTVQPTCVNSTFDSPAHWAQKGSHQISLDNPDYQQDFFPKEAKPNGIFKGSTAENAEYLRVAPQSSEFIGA

[3] = system: colon and rectal cancer cell line, SW-620; test: Inhibitory effect on growth of cancer cell line SW-620, SRB; assay type: cell-based; details: not having overexpressed EGFR and EGFR2
Procedure, shortened: as §1

[4] = system: skin cancer cell line, A431; test: Inhibitory effect on growth of cancer cell line A431, SRB; assay type: cell-based; details: overexpressed EGFR1 (HER-1)
Procedure, shortened: as §1

Sequence of VEGFR2 (KDR) (P35968 20-1356): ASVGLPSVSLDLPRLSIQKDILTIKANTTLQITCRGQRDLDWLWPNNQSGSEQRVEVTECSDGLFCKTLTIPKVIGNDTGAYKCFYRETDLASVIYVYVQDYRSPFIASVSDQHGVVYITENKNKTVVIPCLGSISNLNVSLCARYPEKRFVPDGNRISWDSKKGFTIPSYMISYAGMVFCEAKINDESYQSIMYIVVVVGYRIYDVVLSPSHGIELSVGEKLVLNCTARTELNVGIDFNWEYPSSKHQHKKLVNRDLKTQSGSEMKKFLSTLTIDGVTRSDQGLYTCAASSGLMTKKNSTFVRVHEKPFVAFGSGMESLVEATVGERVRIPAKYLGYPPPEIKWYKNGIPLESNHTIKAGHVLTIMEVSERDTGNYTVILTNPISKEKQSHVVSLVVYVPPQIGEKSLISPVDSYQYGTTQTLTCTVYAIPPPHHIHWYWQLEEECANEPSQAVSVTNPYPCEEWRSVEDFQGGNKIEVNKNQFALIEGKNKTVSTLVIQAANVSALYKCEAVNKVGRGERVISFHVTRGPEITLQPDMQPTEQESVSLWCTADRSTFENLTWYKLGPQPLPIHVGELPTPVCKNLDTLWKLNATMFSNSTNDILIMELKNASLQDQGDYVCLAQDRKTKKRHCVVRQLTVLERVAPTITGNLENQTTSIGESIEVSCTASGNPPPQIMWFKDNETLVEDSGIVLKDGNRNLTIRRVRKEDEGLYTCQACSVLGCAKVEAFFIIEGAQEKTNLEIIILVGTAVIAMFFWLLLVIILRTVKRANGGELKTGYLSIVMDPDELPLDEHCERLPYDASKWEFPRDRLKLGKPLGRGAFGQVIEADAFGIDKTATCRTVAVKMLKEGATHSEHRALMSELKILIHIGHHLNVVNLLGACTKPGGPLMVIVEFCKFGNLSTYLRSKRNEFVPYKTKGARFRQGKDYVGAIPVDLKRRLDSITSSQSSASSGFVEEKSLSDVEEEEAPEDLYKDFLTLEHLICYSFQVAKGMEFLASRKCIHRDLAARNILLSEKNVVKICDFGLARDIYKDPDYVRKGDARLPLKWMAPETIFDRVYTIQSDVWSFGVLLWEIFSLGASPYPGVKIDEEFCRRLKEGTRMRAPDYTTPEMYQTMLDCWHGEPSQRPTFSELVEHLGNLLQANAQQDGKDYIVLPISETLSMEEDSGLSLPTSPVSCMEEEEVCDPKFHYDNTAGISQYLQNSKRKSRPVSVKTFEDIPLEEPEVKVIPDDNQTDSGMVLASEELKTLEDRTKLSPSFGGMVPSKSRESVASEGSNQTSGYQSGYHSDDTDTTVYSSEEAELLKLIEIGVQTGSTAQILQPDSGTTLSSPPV

| Compound | IC50 (VEGFR2 (KDR)) [µM] | IC50 ([1]; Homo sapiens, SK-BR-3, 72 h) [µM] | IC50 ([2]; Homo sapiens, 96 h) [µM] | IC50 (EGFR1 (HER-1)) [µM] | IC50 ([3]; Homo sapiens, 72 h) [µM] | IC50 ([4]; Homo sapiens, A-431, 72 h) [µM] | IC50 ([1]; 72 hours) [µM] | IC50 ([2]; 96 hours) [µM] | IC50 ([3]; 72 hours) [µM] | IC50 ([4]; 72 hours) [µM] |
| --- | --- | --- | --- | --- | --- | --- | --- | --- | --- | --- |
| C=CC(=O)Nc1cc2c(Nc3ccc(Br)c(Cl)c3F)ncnc2cc1OCCNC(=O)CN(CC)CC [Example 151, N-{4-(4-bromo-3-chloro-2-fluoro-phenylamino)-7-[2-(2-diethylamino-acetylamino)-ethoxy]-quinazolin-6-yl}-acrylamide] | 0.309 | 0.153 | 0.351 | 0.058 | 9.52 | 0.068 |  |  |  |  |
| C=CC(=O)Nc1cc2c(Nc3ccc(Br)cc3F)ncnc2cc1OCC1CCN(C(N)=O)CC1 [Example 4, 4-[6-acryloylamino-4-(4-bromo-2-fluoro-phenylamino)-quinazolin-7-yloxymethyl]-piperidin-1-carboxylic acid amide] | 0.136 | 0.147 | 0.087 | 0.015 | 5.67 | 0.025 |  |  |  |  |
| C=CC(=O)Nc1cc2c(Nc3ccc(Br)cc3F)ncnc2cc1OCCNC(=O)C(C)C [Example 48, N-[4-(4-bromo-2-fluoro-phenylamino)-7-(2-isobutyrylamino-ethoxy)-quinazolin-6-yl]-acrylamide] | 0.698 | 0.07 | 0.697 | 0.128 | 10 | 0.114 |  |  |  |  |
| C=CC(=O)Nc1cc2c(Nc3ccc(Br)cc3F)ncnc2cc1OCCNC(=O)CN(C)C [Example 25, N-[4-(4-bromo-2-fluoro-phenylamino)-7-[2-(2-dimethylamino-acetylamino)-ethoxy]-quinazolin-6-yl]-acrylamide] | 0.584 | 0.021 | 0.786 | 0.002 | 5.79 | 0.016 |  |  |  |  |
| C=CC(=O)Nc1cc2c(Nc3ccc(Br)cc3F)ncnc2cc1OCC(CC)NC(=O)CN(C)C (stereo not drawn) [Example 160, N-{4-(4-bromo-2-fluoro-phenylamino)-7-[2-(2-dimethylamino-acetylamino)-butoxy]-quinazolin-6-yl}-acrylamide] | 0.984 | 0.096 | 0.867 | 0.023 | 6.55 | 0.055 |  |  |  |  |
| C=CC(=O)Nc1cc2c(Nc3ccc(Br)cc3F)ncnc2cc1OCCNC(=O)CN1CCC1 [Example 110, N-[7-[2-(2-azetidin-1-yl-acetylamino)-ethoxy]-4-(4-bromo-2-fluoro-phenylamino)-quinazolin-6-yl]-acrylamide] | 0.951 | 1.36 | 0.956 | 0.987 | 4.59 | 1.02 |  |  |  |  |
| C=CC(=O)Nc1cc2c(Nc3ccc(Br)cc3F)ncnc2cc1SCCNC(C)=O [Example 43, N-[7-(2-acetylamino-ethylsulfanyl)-4-(4-bromo-2-fluoro-phenylamino)-quinazolin-6-yl]-acrylamide] | 0.785 | 4.34 | 0.987 | 0.109 | 3.67 | 0.104 |  |  |  |  |
| C=CC(=O)Nc1cc2c(Nc3ccc(Br)c(Cl)c3F)ncnc2cc1OCCNC(=O)COC [Example 146, N-{4-(4-bromo-3-chloro-2-fluoro-phenylamino)-7-[2-(2-methoxy-acetylamino)-ethoxy]-quinazolin-6-yl}-acrylamide] | 0.257 | 0.097 | 0.365 | 0.213 | 2.79 | 0.203 |  |  |  |  |
| C=CC(=O)Nc1cc2c(Nc3ccc(Br)cc3F)ncnc2cc1OCCNC(=O)N1CCN(C)CC1 [Example 96, 4-methyl-piperazine-1-carboxylic acid {2-[6-acryloylamino-4-(4-bromo-2-fluoro-phenylamino)-quinazolin-7-yloxy]-ethyl}-amide] | 0.358 | 0.239 | 0.352 | 0.013 | 10 | 0.021 |  |  |  |  |
| C=CC(=O)Nc1cc2c(Nc3ccc(Br)cc3F)ncnc2cc1OCC(C)NC(=O)NCCC (stereo not drawn) [Example 85, N-{4-(4-bromo-2-fluoro-phenylamino)-7-[2-(3-propyl-ureido)-propoxy]-quinazolin-6-yl}-acrylamide] | 0.784 | 0.178 | 0.964 | 0.029 | 2.76 | 0.038 |  |  |  |  |
| C=CC(=O)Nc1cc2c(Nc3ccc(Br)cc3F)ncnc2cc1OCCNC(=O)NCC [Example 23, N-{4-(4-bromo-2-fluoro-phenylamino)-7-[2-(3-ethyl-ureido)-ethoxy]-quinazolin-6-yl}-acrylamide] | 0.25 | 0.038 | 0.099 | 0.002 | 8.1 | 0.015 |  |  |  |  |
| C=CC(=O)Nc1cc2c(Nc3ccc(Br)cc3F)ncnc2cc1OCCNC(=O)C=NOC [Example 73, N-{4-(4-bromo-2-fluoro-phenylamino)-7-[2-(2-methoxyimino-acetylamino)-ethoxy]-quinazolin-6-yl}-acrylamide] | 0.668 | 0.589 | 0.634 | 0.256 | 10 | 0.365 |  |  |  |  |
| C=CC(=O)Nc1cc2c(Nc3ccc(Br)cc3F)ncnc2cc1OCc1ccncc1 [Example 6, N-[4-(4-bromo-2-fluoro-phenylamino)-7-(pyridin-4-ylmethoxy)-quinazolin-6-yl]-acrylamide] | 0.5 | 1.35 | 0.45 | 0.056 | 8.46 | 0.168 |  |  |  |  |
| C=CC(=O)Nc1cc2c(Nc3ccc(Br)c(Cl)c3F)ncnc2cc1OC[C@@H](C)NC(=O)CN(C)C [Example 159] | 0.419 |  |  | 0.286 |  |  | 0.162 | 0.423 | 6.65 | 0.254 |
| C=CC(=O)Nc1cc2c(Nc3ccc(Br)cc3F)ncnc2cc1OCCNC(=O)C(COC)N(C)C (stereo not drawn) [Example 161, N-{4-(4-bromo-2-fluoro-phenylamino)-7-[2-(2-dimethylamino-3-methoxy-propionylamino)-ethoxy]-quinazolin-6-yl}-acrylamide] | 1.12 | 0.118 | 1.23 | 0.057 | 10 | 0.095 |  |  |  |  |
| C=CC(=O)Nc1cc2c(Nc3ccc(Cl)cc3Cl)ncnc2cc1OCCNC(C)=O [Example 113, N-[7-(2-acetylamino-ethoxy)-4-(4-chloro-2-chloro-phenylamino)-quinazolin-6-yl]-acrylamide] | 0.268 | 0.289 | 0.369 | 0.049 | 2.21 | 0.058 |  |  |  |  |
| C=CC(=O)Nc1cc2c(Nc3ccc(Br)c(Cl)c3F)ncnc2cc1OCCNC(=O)CCN1CCCCC1 [Example 147, N-{4-(4-bromo-3-chloro-2-fluoro-phenylamino)-7-[2-(3-piperidin-1-yl-propionylamino)-ethoxy]-quinazolin-6-yl}-acrylamide] | 0.079 | 0.125 | 0.167 | 0.012 | 9.53 | 0.04 |  |  |  |  |
| C=CC(=O)Nc1cc2c(Nc3ccc(Br)c(Cl)c3F)ncnc2cc1OC[C@H](C)NC(=O)CN(C)C [Example 163, (S)—N-4-(4-bromo-3-chloro-2-fluoro-phenylamino)-7-[2-(2-dimethylamino-acetylamino)-propoxy]-quinazolin-6-yl-acrylamide] | 0.722 |  |  | 0.012 |  |  | 0.045 | 0.735 | 10 | 0.018 |
